Experimental data: patent US20250296971A1, “GASTRIC INHIBITORY PEPTIDE RECEPTOR LIGANDS” (priority 2021, published 2025)
*1 amine or outer side, *2 acyl side, *3 side chain or, on linkers, in order; H or OH if unused. Where a SMILES comes first, the peptide text is derived from it. Bridges are numbered along the chain shown (N, C = ends). [ ]: non-standard residue; d: D form. The star is where a group is joined. NH(1-deoxy-D-glucityl) = OC[C@@H](O)[C@@H](O)[C@H](O)[C@@H](O)CN*; DO3AM = NC(=O)CN1CCN(CC(N)=O)CCN(CC(=O)*)CCN(CC(N)=O)CC1; DOTA = O=C(O)CN1CCN(CC(=O)O)CCN(CC(=O)*)CCN(CC(=O)O)CC1; Trp(5-Cl) = N[C@@H](Cc1c[nH]c2ccc(Cl)cc12)C(=O)O; Pyridine(2,6-diCH2) = c1cc(C[*:1])nc(C[*:2])c1; Pro(4R-NH2) = N[C@H]1CN[C@H](C(=O)O)C1; Glutaryl = O=C(CCCC(=O)[*:2])[*:1]; Hyp = O=C(O)[C@@H]1C[C@@H](O)CN1; X1 = O=C(CN1CCC(N[*:1])CC1)[*:2]; αMeK = C[C@](N)(CCCCN)C(=O)O; Api = NC1(C(=O)O)CCNCC1; Thp = NC1(C(=O)O)CCOCC1; Bn = c1ccc(C*)cc1

molecular target: T1, GIPR (CHO-K1-hGIPR cells) (Homo sapiens, UniProt P48546); assay: FACS binding assay; conditions: competition with 20 nM GIP-057, 4° C. for 1 hour, read-out: pIC50 Category (converted)
T1 construct: host or cells: CHO-K1
T1 sequence (P48546 22-466): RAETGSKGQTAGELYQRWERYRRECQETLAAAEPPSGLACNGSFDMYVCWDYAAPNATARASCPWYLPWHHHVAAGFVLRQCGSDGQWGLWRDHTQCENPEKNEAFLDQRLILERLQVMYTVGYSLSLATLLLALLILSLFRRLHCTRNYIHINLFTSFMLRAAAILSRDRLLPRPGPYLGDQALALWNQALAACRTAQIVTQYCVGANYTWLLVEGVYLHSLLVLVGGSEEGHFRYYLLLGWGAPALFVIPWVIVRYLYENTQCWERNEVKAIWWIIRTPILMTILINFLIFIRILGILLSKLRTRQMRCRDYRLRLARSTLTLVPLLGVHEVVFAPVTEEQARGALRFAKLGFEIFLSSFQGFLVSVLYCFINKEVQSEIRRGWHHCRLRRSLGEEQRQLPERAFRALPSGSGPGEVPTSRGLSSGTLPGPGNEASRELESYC
Summary of the method: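 Median fluorescence in the APC channel, measured on washed CHO-K1 cells overexpressing human GIPR, was fitted by four-parameter logistic regression against peptide concentration to yield EC50 or IC50 values. Secondary labelling used APC-streptavidin (1 μg/mL, 30 min, ice).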

Compound	IC50 [nM]
CC[C@H](C)[C@@H]1NC(=O)[C@H](CC(C)C)NC(=O)C2(CCOCC2)NC(=O)[C@@H](NC(=O)[C@@H](CC(C)C)NC(=O)[C@H](CCC(=O)O)NC(=O)[C@@H]2C[C@@H](O)CN2C(=O)[C@H](Cc2c[nH]c3ccc(Cl)cc23)NC(=O)[C@H](Cc2c[nH]c3ccccc23)NC(=O)[C@H](CC(=O)O)NC(C)=O)CSSC[C@@H](C(N)=O)NC1=O [GIP-364, Ac-Asp-Trp-5Clw-Hyp-Glu-leu-[Cys-Thp-Leu-Ile-Cys]-NH2] (Ac-DW[Trp(5-Cl)][Hyp]E[dL]C[Thp]LIC-NH2; disulfide 7-11)	100 to 794
CC[C@H](C)[C@H](NC(=O)[C@H](CC(C)C)NC(=O)[C@H](C)NC(=O)[C@H](CSCc1ccccc1)NC(=O)[C@H](CC(C)C)NC(=O)[C@H](CCC(=O)O)NC(=O)[C@@H]1CCCN1C(=O)[C@H](Cc1c[nH]c2ccccc12)NC(=O)[C@H](Cc1c[nH]c2ccccc12)NC(=O)[C@H](CC(=O)O)NC(=O)[C@H](Cc1ccc(O)cc1)NC(=O)[C@@H](N)CCSC)C(=O)N[C@@H](CSC)C(N)=O [GIP-368] (H-MYDWWPELC(Bn)ALIC(Me)-NH2)	100 to 794

Next, values leading:

IC50 [nM]	Compound
> 1000	CC[C@H](C)[C@H](NC(=O)[C@H](CC(C)C)NC(=O)[C@H](C)NC(=O)[C@H](CSC)NC(=O)[C@H](CC(C)C)NC(=O)[C@H](CCC(=O)O)NC(=O)[C@@H]1CCCN1C(=O)[C@H](Cc1c[nH]c2ccccc12)NC(=O)[C@H](Cc1c[nH]c2ccccc12)NC(=O)[C@H](CC(=O)O)NC(=O)[C@H](Cc1ccc(O)cc1)NC(=O)[C@@H](N)CCSC)C(=O)N[C@@H](CSCc1ccccc1)C(N)=O [GIP-369] (H-MYDWWPELC(Me)ALIC(Bn)-NH2)
< 10	CC[C@H](C)[C@@H]1NC(=O)[C@H](CC(C)C)NC(=O)C2(CCN(C(=O)CN3CCN(CC(N)=O)CCN(CC(N)=O)CCN(CC(N)=O)CC3)CC2)NC(=O)[C@@H](NC(=O)[C@@H](CC(C)C)NC(=O)[C@H](CCC(=O)O)NC(=O)[C@@H]2C[C@@H](N)CN2C(=O)[C@H](Cc2c[nH]c3ccc(Cl)cc23)NC(=O)[C@H](Cc2c[nH]c3ccccc23)NC(=O)[C@H](CC(=O)O)NC(=O)CCCC(=O)NC[C@H](O)[C@@H](O)[C@H](O)[C@H](O)CO)CSCc2cccc(n2)CSC[C@@H](C(=O)NC2CCN(CC(=O)N[C@H](CCC(=O)NC[C@H](O)[C@@H](O)[C@H](O)[C@H](O)CO)C(N)=O)CC2)NC1=O [GIP-370, AGLU-Glutar-Asp-Trp-5Clw-Tap-Glu-leu-[Cys(2Lut)-Apc(DOTAM)-Leu-Ile-Cys]-APAc-glu(AGLU)-NH2] ({NH(1-deoxy-D-glucityl)-Glutaryl}-DW[Trp(5-Cl)][Pro(4R-NH2)]E[dL]C[Api](DO3AM)LIC[X1][dE](NH(1-deoxy-D-glucityl))-NH2; linker 7-11 via Pyridine(2,6-diCH2))
< 10	CC[C@H](C)[C@@H]1NC(=O)[C@H](CC(C)C)NC(=O)[C@](C)(CCCCNC(=O)CN2CCN(CC(=O)O)CCN(CC(=O)O)CCN(CC(=O)O)CC2)NC(=O)[C@@H](NC(=O)[C@@H](CC(C)C)NC(=O)[C@H](CCC(=O)O)NC(=O)[C@@H]2C[C@@H](N)CN2C(=O)[C@H](Cc2c[nH]c3ccc(Cl)cc23)NC(=O)[C@H](Cc2c[nH]c3ccccc23)NC(=O)[C@H](CC(=O)O)NC(=O)CCCC(=O)NC[C@H](O)[C@@H](O)[C@H](O)[C@H](O)CO)CSCc2cccc(n2)CSC[C@@H](C(=O)NC2CCN(CC(=O)N[C@H](CCC(=O)NC[C@H](O)[C@@H](O)[C@H](O)[C@H](O)CO)C(N)=O)CC2)NC1=O [GIP-371, AGLU-Glutar-Asp-Trp-5Clw-Tap-Glu-leu-[Cys(2Lut)-Amk(DOTA)-Leu-Ile-Cys]-APAc-glu(AGLU)-NH] ({NH(1-deoxy-D-glucityl)-Glutaryl}-DW[Trp(5-Cl)][Pro(4R-NH2)]E[dL]C[αMeK](DOTA)LIC[X1][dE](NH(1-deoxy-D-glucityl))-NH2; linker 7-11 via Pyridine(2,6-diCH2))
